Data: patent publication US10766863B2, “Monocarboxylate transport modulators and uses thereof” (NIROGYONE THERAPEUTICS, INC., priority 2014, dated 2020)

Experiments:
Assay type in all cases: cell-based
[1] = test system: monocarboxylate transporters; assay: Lactate uptake by 14C-lactate labeling assay; conditions: SiHa cells, compound one hour, 2 μM 14C-lactate for 12 minutes; read-out: Lactate Consumption (%)/[IC50][14C labeled]
Experimental: Measuring Lactate Uptake by ^14 C-lactate Labeling Assay.
The inhibition of monocarboxylate transporters of the invention was determined using ^14CLactate, and the data are shown in Table II. Cells are maintained in their appropriate growth medium (DMEM medium with 4.5 g/L glucose, 4 mM L-glutamine supplemented with 10% FBS and P/S (growth medium). Cell culture surface of 24-well cell culture plates (BD Bioscience) were aseptically coated with 80 μL poly-lysine (1 mg/mL, Sigma) for 5 mins, then rinsed with sterile cell culture grade water, air-dried for at least 2 hours before introducing cells and medium. SiHa cells were seeded in poly-lysine coated 24-well plate at 500,000 cells/well in growth medium for 6 hours. Replace the growth medium with 1 mL lactate medium (10 mM lactate in base DMEM without sodium pyruvate) for overnight. Cells were rinsed with modified Kreb solution (containing 10 μM L-lactate, without glucose) and then treated with vehicle or increasing concentrations of compounds (0.1, 1, 10, 100 μM) at 37° C. in 1 mL modified Kreb solution (containing 10 μM L-lactate, 0.25% BSA) for one hour. […] After one hour agitation, the radioactivity was measured using Microbeta TriLux. CPM value was recorded and normalized to protein concentration.

[2] = test system: monocarboxylate transporters; assay: Lactate consumption assay in tumor cell lines (enzymatic L-Lactate Kit II); conditions: tumor cells in 10 mM lactate medium, compound 24 hours; concentration not given
Experimental: Lactate Consumption Assay in Tumor Cell Lines.
Cells are maintained in their appropriate growth medium (DMEM medium with 4.5 g/L glucose, 4 mM L-glutamine supplemented with 10% FBS and P/S (growth medium). Cells (500,000 cells/well) were seeded in 24-well plate in growth medium for 6 hours. Replace the growth medium with 1 mL lactate medium (10 mM lactate in base DMEM without sodium pyruvate) for overnight. Cells were treated with compounds in 1 mL lactate medium for 24 hours. The culture medium was collected and centrifuged at 12,000 rpm for 5 minutes at 4° C. to get rid of any cell debris. An aliquot of 0.5 mL of the supernatant was loaded to a deproteinizing column, centrifuged at 12,000 rpm for 15 minutes at 4° C. The flow-through was collected and stored at -80° C. for future analysis. The amount of lactate in the supernatant was analyzed by enzymatic L-Lactate Kit II (Eton Bioscience Inc.). Briefly, 50 μL of 10 times diluted sample was mixed with 50 μL reaction mixture. Lactic acid is oxidized by enzyme reactions to yield color product, which can be measured in dual modes, either at 570 nm for colorimetric assay or with Ex 530-560/Em 570-595 nm fluorescence assay. And the color or fluorescence intensity is proportional to lactic acid concentrations, therefore the sample lactic acid concentration can be accurately calculated based on the lactic acid standards. […]

[3] = test system: panel of solid and haemotological tumor cell lines; assay: MTS or MTT cell proliferation assay (cytotoxicity of MCT inhibition); conditions: Homo sapiens; MTS or MTT readout, 72 hours post-dosing; growth medium or 10 mM lactate medium (SiHa); cell line not given
Experimental: MTS or MTT Cell Proliferation Assay
The anti-proliferation effect of MCT inhibition was investigated across a panel of solid and haemotological tumor cell lines. Cells were routinely cultured in their appropriate growth medium. On day 1, between 5,000 -10,000 cells/well were plated into 96-well plates. 100 μL of phosphate buffered saline solution was added to the external wells to prevent media evaporation. Plates were incubated overnight at 37° C. in the presence of 5% CO2. On day 2, dry weight compound stocks were dissolved to a concentration of 20 mM in 100% DMSO. Compounds were further diluted in either growth medium or 10 mM lactate medium (For SiHa cell lines; Basic DMEM, 10% FBS, 10 mM Na-Lactate, 2.2 g/L NaHCO3, no glutamine) to generate a final dose range of 10 nM to 100 μM. Plates were then incubated at 37° C. in the presence of 5% CO2 for a further 72 hours post-dosing. On day 5, 20 μL of CellTiter 96 AQ MTS reagent or MTT was added to each well and the plate was returned to the incubator for 2-4 hours. In case of lactate medium, the medium was replaced by 100 μL of growth medium and 20 μL of CellTiter 96 AQ MTS reagent or replaced the media in cells with 100 uL of growth media containing 10% MTT solution,. MTS or MTT is bioreduced by NADPH or NADH produced by dehydrogenase enzymes in metabolically active cells into a coloured formazan product that is soluble in tissue culture medium. The amount of coloured formazan product is directly proportional to the number of living cells in culture. In the case of MTT, after 4 hr incubation, the media was removed from the plates and the plate was air-dried. Then, 100 uL of DMSO was added to each well, and incubated for 30 mins at room temperature with mild shaking. The absorbance of the plates was read on a Synergy H4 plate reader using […] or 540 nm measurement wavelength. Dose response curves were plotted and IC50 values were calculated using Prism. The IC50 value is equivalent to the concentration of compound that causes 50% inhibition of growth calculated from the compound treated signal to the vehicle treated signal.

Structure (SMILES) | IC50 [1] [nM] | Lactate Consumption [Lactate Kit] (%)/[IC50] [2] [%] | EC50 [3] [nM]
CC(C)Cn1cc(C(=O)O)c(=O)c2cc(F)c(N(C)Cc3ccccc3)cc21 [Example 1, 7-(benzyl(methyl)amino)-6-fluoro-1-isobutyl-4-oxo-1,4-dihydroquinoline-3-carboxylic acid] | < 1000 | 86 | < 1000
CC(C)Cn1cc(C(=O)O)c(=O)c2cc(F)c(N(C)Cc3cccc(C(F)(F)F)c3)cc21 [Example 3, 6-fluoro-1-isobutyl-7-(methyl(3-(trifluoro-methyl)benzyl)amino)-4-oxo-1,4-dihydroquinoline-3-carboxylic acid] |  |  | < 1000
CC(C)Cn1cc(C(=O)O)c(=O)c2cc(F)c(N(C)Cc3ccc(Cl)cc3)cc21 [Example 4, 7-((4-chlorobenzyl) (methyl)amino)-6-fluoro-1-isobutyl-4-oxo-1,4-dihydro-quinoline-3-carboxylic acid] |  |  | < 1000
CC(C)Cn1cc(C(=O)O)c(=O)c2cc(F)c(NCc3cccc(C(F)(F)F)c3)cc21 [Example 5, 6-fluoro-1-isobutyl-4-oxo-7-((3-(trifluoro-methyl)benzyl)amino)-1,4-dihydroquinoline-3-carboxylic acid] |  |  | < 1000
CCn1cc(C(=O)O)c(=O)c2cc(F)c(N(C)Cc3ccccc3)cc21 [Example 6, 7-(benzyl(methyl)amino)-1-ethyl-6-fluoro-4-oxo-1,4-dihydroquinoline-3-carboxylic acid] |  |  | < 1000
CC(C)Cn1cc(C(=O)O)c(=O)c2cc(F)c(N(C)Cc3cccc(F)c3)cc21 [Example 7, 6-fluoro-7-((3-fluorobenzyl)(methyl)amino)-1-isobutyl-4-oxo-1,4-dihydro-quinoline-3-carboxylic acid] |  |  | < 1000
COc1cccc(CN(C)c2cc3c(cc2F)c(=O)c(C(=O)O)cn3CC(C)C)c1 [Example 8, 6-fluoro-1-isobutyl-7-((3-methoxybenzyl) (methyl)amino)-4-oxo-1,4-dihydroquinoline-3-carboxylic acid] |  |  | < 1000
CC(C)Cn1cc(C(=O)O)c(=O)c2cc(F)c(N(C)CC3CCN(C)CC3)cc21 [Example 9, 6-fluoro-1-isobutyl-7-(methyl((1-methyl-piperidin-4-yl)methyl)amino)-4-oxo-1,4-dihydroquinoline-3-carboxylic acid] |  |  | < 1000
CC(C)Cn1cc(C(=O)O)c(=O)c2cc(F)c(N(C)Cc3cccs3)cc21 [Example 10, 6-fluoro-1-isobutyl-7-(methyl(thiophen-2-ylmethyl)amino)-4-oxo-1,4-dihydro-quinoline-3-carboxylic acid] |  |  | < 1000
CC(C)Cn1cc(C(=O)O)c(=O)c2cc(F)c(N(C)C(=O)c3ccccc3)cc21 [Example 11, 6-fluoro-1-isobutyl-7-(N-methylbenzamido)-4-oxo-1,4-dihydro-quinoline-3-carboxylic acid] |  |  | < 1000
COc1cccc(CN(C)c2cc3c(cc2F)c(=O)c(C(=O)O)cn3Cc2ccccc2)c1 [Example 12, 1-benzy1-6-fluoro-7-((3-methoxybenzyl) (methyl)amino)-4-oxo-1,4-dihydroquinoline-3-carboxylic acid] |  |  | < 1000
Cc1cc(C)n(Cc2cc3c(cc2C(=O)N2CCC2)c(=O)c(C(=O)O)cn3CC(C)C)n1 [Example 15, 6-(azetidine-1-carbonyl)-7-((3,5-dimethyl-1H-pyrazol-1-yl)methyl)-1-isobutyl-4-oxo-1,4-dihydroquinoline-3-carboxylic acid] |  |  | < 1000
CC(C)n1cc(C(=O)O)c(=O)c2cc(F)c(N(C)Cc3cccnc3)cc21 [Example 16, 6-fluoro-1-isopropyl-7-(methyl(pyridin-3-ylmethyl)amino)-4-oxo-1,4-dihydro-quinoline-3-carboxylic acid] |  |  | < 1000
CC(C)n1cc(C(=O)O)c(=O)c2cc(F)c(N(C)Cc3ccccc3)cc21 [Example 17, 7-(benzyl(methyl)amino)-6-fluoro-1-isopropyl-4-oxo-1,4-dihydro-quinoline-3-carboxylic acid] |  |  | < 1000
CC(C)n1cc(C(=O)O)c(=O)c2cc(F)c(N(C)Cc3ccc(F)cc3)cc21 [Example 18, 6-fluoro-7-((4-fluorobenzyl)(methyl)amino)-1-isopropyl-4-oxo-1,4-dihydro-quinoline-3-carboxylic acid] |  |  | < 1000
